Measurements taken from patent EP0286781A2, “Pharmaceutical preparation for treating gastro-intestinal tract diseases” (HEUMANN PHARMA GMBH & CO, priority 1987, dated 1988).

Assays:
[1] = system: immobilisationsstreßinduzierten gastromukosalen Schädigung der Ratte; experiment: Immobilisation-stress-induced gastromucosal damage in the rat (ulcer index); type: in vivo, Sprague-Dawley-Ratten; settings: Dosis 50 mg/kg, intragastral in 1%iger Tylose
Text: Untersuchungen am Modell der immobilisationsstreßinduzierten gastromukosalen Schädigung der Ratte
(1984), "Scand. J. Gastroenterol.", 19, (Suppl. 101), 69).
Gestreßt wurden die Tiere unmittelbar nach Applikation. Nach Versuchsende wurden den Tieren die Mägen in Ethernarkose entnommen. Die Mägen wurden entlang der großen Kurvatur eröffnet und gespült. Ausmaß und Beschaffenheit der Läsionen wurden nach einer von Marazzi-Uberti und Turba (C. Med. exp., 4, 284 (1961)) angegebenen Einteilung visuell ausgezählt und als Ulcus-Index ausgedrückt.

[2] = hochdosiert, ca. 50 mg/kg; A. Robert u.a. (1984); cited from earlier work

In the case of CN=C(NC#N)NCCSCc1[nH]cnc1C [Cimetidin], the “Ulcus-Index (MW ±) SD” value ([1]; rats fasted 16 h, 10 animals, control 1% Tylose 69,8 ± 10,7, significant vs control) is given as 32,1 ± 6,6*), the “% Hemmung” value ([1]; inhibition of Ulcus-Index vs 1% Tylose control) is given as 54% and the “ulcus- bzw. cytoprotektive Wirkung” value [2] is given as “ulcus- bzw. cytoprotektive Wirkung”.
